Measured values taken from US20240383909A1, “CO-CRYSTALS” (INTRA-CELLULAR THERAPIES, INC., priority 2021, published 2024).
In brackets after ≈: the same amount, converted by molar mass.

Test: Aqueous solubility of co-crystals (saturated solutions in water, liquid chromatography)
Assay type: physicochemical
Conditions: thermodynamic from solid, time point not stated, read-out: solubility for the Free Base (comparison)
Method: The aqueous solubility of the co-crystals is determined by creating saturated solutions containing individual co-crystals in water. The saturated solutions are shaken for 24 hours at room temperature. Samples are taken at two timepoints (2 hours and 24 hours) and are filtered and diluted (acetonitrile/water 1:1) before measurement with liquid chromatography.

CN1C(=O)c2c(nn(Cc3ccc(-c4cccc(F)n4)cc3)c2Nc2ccccc2)N2C1=N[C@@H]1CCC[C@@H]12 [Free Base, (6aR,9aS)-5,6a,7,8,9,9a-hexahydro-5-methyl-3-(phenylamino)-2-((4-(6-fluoropyridin-2-yl)phenyl)methyl)-cyclopent[4,5]imidazo[1,2-a]pyrazolo[4,3-e]pyrimidin-4(2H)-one]
solubility: 1 µg/mL (≈ 1.97 µM)
